Results reported in patent publication US8519007B2, “Use certain diterpene compounds in the treatment of androgen receptor-associated diseases” (Academia Sinica, priority 2008, dated 2013).
Read-outs that look alike come from different tables or passages of the source.

Experiments:
22Rv1 tumors = test: 22Rv1 xenograft in athymic nude mice, oral HDHS; type: in vivo
Protocol: (§1) 22Rv1 cells were derived from a castration-relapsed tumor of human PCa origin that represents a clinical limitation for hormonal therapy (Nagabhushan M, et al., Cancer Res 1996;56:3042-6; Sramkoski R M, et al., In Vitro Cell Dev Biol Anim 1999; 35:403-9). The potential of HDHS to inhibit growth of PCa in vivo was tested in athymic nude mice with 22Rv1 tumors. […]. All animal work was done in accordance with the protocol approved by the Institutional Animal Care and Use Committee, Academia Sinica. Aliquots of 1×10^6 22Rv1 cells were suspended in 1:1 PBS mixed with Matrigel (BD Biosciences, San Jose, Calif.) and were subcutaneously inoculated into the right flank of each mouse. Once the tumor grew to palpable size one week after 22Rv1 cells were implanted, mice were stochastically assigned to three groups (n=7) that received vehicle control or HDHS at different dosages (0.5 and 2.5 mg/kg/day), by gavage in 0.2 mL of PBS containing 10% DMSO. Tumors were measured twice per week using calipers and their volumes calculated using a standard formula, as follows: width2×length×0.5. Body weight was measured weekly. Mice received 24 doses, and 24 h after the last dose they were sacrificed to harvest plasma and tumors. A portion of each tumor was snap-frozen in liquid nitrogen and stored at −80° C. until needed for western blot analysis of relevant biomarkers, and the remainder was fixed in 10% formalin overnight.
Immunohistochemistry was conducted to examine the in vivo effects of HDHS on proliferation and apoptosis in tumor xenografts. The paraffin-embedded tumor sections (4 μm thickness) were heat immobilized, deparaffinized using xylene and rehydrated in a graded series of ethanol with a final wash in distilled water. Antigen retrieval was done in TARGET RETRIEVAL SOLUTION (DakoCytomation, Glostrup, Denmark) in a DECLOAKING CHAMBER (Biocare Medical, Concord, Calif.) followed by quenching of endogenous peroxidase activity. Sections were then incubated with specific primary antibodies, including mouse monoclonal anti-Ki-67 (DakoCytomation) and rabbit polyclonal anti-AR (Santa Cruz) at 4° C. overnight in a humidity chamber. An ENVISION system (DakoCytomation) was used to detect the reaction products. In situ detection of apoptotic cells was carried out using terminal deoxynucleotidyl transferase-mediated nick-end labeling (TUNEL assay) reaction mixture according to the manufacturer's protocol (Chemicon).

PC-3 cells [1] = test: Morphology of treated cells; conditions: PC-3, up to 50 μM
Excerpt: (§2) The long-term effect of HDHS on the malignant growth of AR-dependent (22Rv1, and LNCaP) and AR-independent (PC-3) PCa cells was examined by colony-forming growth assay.

LNCaP cells [2] = test: Western blot of caspases, PARP, p53 and Bcl-xL; type: cell-based, human; conditions: 10 μM
Protocol: During apoptosis, various caspases are activated which are involved in the cleavage and […] a range of cellular substrates, including […] the DNA repair enzyme PARP (Herceg Z et al., Mol Cell Biol 1999;10:5124-33; Okada H et al., Nat Rev Cancer 2004; 4:592-603). In the presence of 10 μM HDHS, PARP cleavage was observed, and at the same time caspase-3 and -7 were activated by proteolytic cleavage (FIG. 4B, lane 5). […] In contrast, activation of caspase-3 and -7 or cleavage of PARP were not detected in PC-3 cells treated with 10 μM HDHS for 24 h (FIG. 4B, lane 10). Tumor suppressor p53 is a control for the G1 checkpoint and cell apoptosis, and LNCaP cells express wild-type p53 (van Bokhoven A et al., Prostate 2003; 57:205-25).

22Rv1 cells = test: Cell cycle distribution by propidium iodide flow cytometry; type: cell-based, human; conditions: 48 h
Protocol: (§3) The cell cycle of treated cells was examined by flow cytometry after cellular staining with propidium iodide. 5×10^5 cells were seeded into 6-well multidishes with 10% FBS culture medium for 48 h. […] Cells were trypsinized thereafter, washed twice with cold PBS, and centrifuged. The pellet was suspended in cold PBS and 1 mL of 70% ethanol at 4° C. overnight, washed twice with cold PBS, and digested with RNase (100 μg/mL final concentration) and stained with propidium iodide (10 μg/mL final concentration) for 30 min and analyzed by flow cytometry (EPICS XL-MCL, Beckman Coulter, Inc., Fullerton, Calif.).

PC-3 cells [3] = test: as above; type: cell-based, human; conditions: 48 h
Protocol: as §3

[4] = HDHS levels in plasma and tumors of treated nude mice (HPLC); type: in vivo; conditions: 24 h after the last of 24 doses; for concentration at 24 h after the last dose: athymic (nu/nu) nude, mouse, in vivo, read-out: HDHS level in plasma
Protocol: as §1
In order to further understand the dose-effect relationships, the attainable levels of HDHS in plasma and tumors were detected 24 h after the last dose of HDHS regimen in the tested mice. […]. These increases of HDHS concentrations in plasma and tumors were dose-dependent and consistent with the extent of tumor suppression (FIGS. 6A and B).

LNCaP cells [5] = test: Morphology of treated cells; conditions: 10 to 50 μM, 48 h
Excerpt: as §2

[6] = 0.5 and 2.5 mg/kg/day oral, 24 days

SMILES: CC(C)c1cc2c(cc1O)[C@@]1(C)CCCC(C)(C)C1=C(O)C2=O [Compound 2, 6,12-dihydroxyabieta-5,8,11,13-tetraen-7-one]
- Ki-67 positive proliferative tumor cells (22Rv1 tumors; [6]): decreased the number of cells positively stained for Ki-67
- TUNEL positive apoptotic tumor cells (22Rv1 tumors; [6]): increase of apoptotic tumor cells
- AR expression in tumor cells (immunohistochemistry) (22Rv1 tumors; HDHS-treated 22Rv1 tumors): prevalent decrease of AR expression
- tumor growth of 22Rv1 xenograft (22Rv1 tumors; nude mice, 0.5 and 2.5 mg/kg/day by gavage, 24 doses): significantly retarded tumor growth
- symptoms of toxicity (loss of appetite, decreased locomotion, signs of illness) (22Rv1 tumors; nude mice, 24-day regimen, oral): did not exhibit any symptoms of toxicity
- body weight of tested mice (22Rv1 tumors; up to 2.5 mg/kg per day, oral): not influenced
- morphology of treated cells (PC-3 cells [1]): only cell rounding
- PARP cleavage (LNCaP cells [2]): observed
- caspase-3 and -7 proteolytic cleavage (LNCaP cells [2]): activated
- decrease of anti-apoptotic regulator Bcl-xL level (LNCaP cells [2]; 24 h): ~50%
- increase in p53 (LNCaP cells [2]; 24 h): 3 fold
- G0-G1 phase cell population (22Rv1 cells; 22Rv1, 2.5 μM): 54.5 ± 2.5 %
- G2-M phase cell population (22Rv1 cells; 22Rv1, 2.5 μM): 24.8 ± 2.4 %
- S phase cell population (22Rv1 cells; 22Rv1, 2.5 μM): 11.2 ± 1.9 %
- Sub-G1 phase cell population (22Rv1 cells; 22Rv1, 2.5 μM): 2.2 ± 0.8 %
- G0-G1 phase cell population (22Rv1 cells; 22Rv1, 5 μM): 57.9 ± 1.9 %
- G2-M phase cell population (22Rv1 cells; 22Rv1, 5 μM): 23.7 ± 2.7 %
- S phase cell population (22Rv1 cells; 22Rv1, 5 μM): 8.0 ± 1.4 %
- Sub-G1 phase cell population (22Rv1 cells; 22Rv1, 5 μM): 3.8 ± 0.9 %
- G0-G1 phase cell population (22Rv1 cells; 22Rv1, 10 μM): 48.4 ± 2.9 %
- G2-M phase cell population (22Rv1 cells; 22Rv1, 10 μM): 24.5 ± 2.0 %
- S phase cell population (22Rv1 cells; 22Rv1, 10 μM): 5.7 ± 2.2 %
- Sub-G1 phase cell population (22Rv1 cells; 22Rv1, 10 μM): 14.4 ± 3.7 %
- G0-G1 phase cell population (PC-3 cells [3]; PC-3, 2.5 μM): 52.7 ± 2.0 %
- G2-M phase cell population (PC-3 cells [3]; PC-3, 2.5 μM): 24.9 ± 2.7 %
- S phase cell population (PC-3 cells [3]; PC-3, 2.5 μM): 19.2 ± 1.0 %
- Sub-G1 phase cell population (PC-3 cells [3]; PC-3, 2.5 μM): 2.3 ± 0.7 %
- G0-G1 phase cell population (PC-3 cells [3]; PC-3, 5 μM): 55.9 ± 2.9 %
- G2-M phase cell population (PC-3 cells [3]; PC-3, 5 μM): 19.5 ± 2.9 %
- S phase cell population (PC-3 cells [3]; PC-3, 5 μM): 18.8 ± 1.1 %
- Sub-G1 phase cell population (PC-3 cells [3]; PC-3, 5 μM): 2.8 ± 0.9 %
- G0-G1 phase cell population (PC-3 cells [3]; PC-3, 10 μM): 58.2 ± 2.8 %
- G2-M phase cell population (PC-3 cells [3]; PC-3, 10 μM): 19.2 ± 3.2 %
- S phase cell population (PC-3 cells [3]; PC-3, 10 μM): 18.0 ± 1.9 %
- Sub-G1 phase cell population (PC-3 cells [3]; PC-3, 10 μM): 2.1 ± 0.6 %
- concentration at 24 h after the last dose ([4]; oral 0.5 mg/kg): 450 ± 140 nM
- concentration at 24 h after the last dose ([4]; oral 2.5 mg/kg): 1450 ± 300 nM
- HDHS level in tumor tissues ([4]; oral 0.5 mg/kg): 98.45 ± 19.80 nmol/g
- HDHS level in tumor tissues ([4]; oral 2.5 mg/kg): 154.93 ± 12.97 nmol/g
- morphology of treated cells (LNCaP cells [5]): cell rounding and surface blebbing
